Measurements published in PMC9897788, “Design, synthesis and cytotoxic evaluation of novel bis-thiazole derivatives as preferential Pim1 kinase inhibitors with in vivo and in silico study” (Journal of Enzyme Inhibition and Medicinal Chemistry, 2023).

Experiments:
Test in all cases: NCI 60 cell one-dose screening (SRB)
Type in all cases: cell-based
ACHN = conditions: Homo sapiens, Renal Cancer, single dose 10 µM, 48 h, read-out: Percentage of cellular growth inhibition
Procedure: (§1) The 60 cancerous cell panel screening was performed following the Developmental Therapeutics Program (DTP) of the National Cancer Institute (NIH-NCI), USA. A single dose of 10 µM was used to perform the screening at 48 h incubation and the results were achieved as cancerous cell growth percentage relative to the no-drug control that was converted to an inhibition percentage by subtracting from 100.The cancerous cell lines were grown in RPMI 1640 medium containing 5% foetal bovine serum and 2 mM L-glutamine at 37 °C, 5% CO2, 95% air and 100% relative humidity for 24 h prior to addition of the tested compounds. After 24 h, two plates of each cell line were fixed in situ with TCA to represent a measurement of the cell population for each cell line at the time of drug addition (Tz). Compounds were dissolved in DMSO at 400-fold the desired final maximum test concentration and stored frozen prior to use. At the time of drug addition, an aliquot of frozen concentrate was thawed and diluted to twice the desired final maximum test concentration with complete medium containing 50 µg/mL gentamicin. Aliquots of 100 µL of the compounds dilution was added to the appropriate micro titre wells already containing 100 µL of medium, resulting in the required final drug concentrations of 10 µM. Following compounds addition, the plates were incubated for an additional 48 h at 37 °C, 5% CO2, 95% air, and 100% relative humidity. For adherent cells, the assay was terminated by the addition of cold TCA. Cells were fixed in situ by the gentle addition of 50 µL of cold 50% (w/v) TCA (final concentration, 10% TCA) and incubated for 60 min at 4 °C. The supernatant was discarded, and the plates were washed five times with tap water and air dried. Sulphorhodamine B (SRB) solution (100 µL) at 0.4% (w/v) in 1% acetic acid is added to each well, and plates are incubated for 10 min at room temperature. After staining, unbound dye was removed by washing five times with 1% acetic acid and the plates were air dried. Bound stain was subsequently solubilised with 10 mM trizma base, and the absorbance was read on an automated plate reader at a wavelength of 515 nm. For suspension cells, the methodology was the same except that the assay was terminated by fixing settled cells at the bottom of the wells by gently adding 50 µL of 80% TCA (final concentration, 16% TCA). Using the seven absorbance measurements [time zero, (Tz), control growth, I, and test growth in the presence of drug at the five concentration levels (Ti)], the percentage growth was calculated as: [(Ti−Tz)/(C−Tz)]×100 for concentrations for which Ti>/=Tz [(Ti−Tz)/Tz]×100 for concentrations for which Ti<Tz.

BT-549 = conditions: Homo sapiens; BT-549, Breast Cancer; single dose 10 µM, 48 h; read-out: Percentage of cellular growth inhibition
Procedure: as §1

CCRF-CEM = conditions: Homo sapiens, Leukemia, single dose 10 µM, 48 h, read-out: Percentage of cellular growth inhibition
Procedure: as §1

COLO 205 = conditions: Homo sapiens; COLO 205, Colon Cancer; single dose 10 µM, 48 h; read-out: Percentage of cellular growth inhibition
Procedure: as §1

HCT-15 = conditions: Homo sapiens; HCT-15, Colon Cancer; single dose 10 µM, 48 h; read-out: Percentage of cellular growth inhibition
Procedure: as §1

HL-60(TB) = conditions: Homo sapiens, Leukemia, single dose 10 µM, 48 h, read-out: Percentage of cellular growth inhibition
Procedure: as §1

HT29 = conditions: Homo sapiens, HT-29; HT29, Colon Cancer; single dose 10 µM, 48 h; read-out: Percentage of cellular growth inhibition
Procedure: as §1

IGROV1 = conditions: Homo sapiens, IGROV-1; IGROV1, Ovarian Cancer; single dose 10 µM, 48 h; read-out: Percentage of cellular growth inhibition
Procedure: as §1

K-562 = conditions: Homo sapiens, K562; K-562, Leukemia; single dose 10 µM, 48 h; read-out: Percentage of cellular growth inhibition
Procedure: as §1

MDA-MB-468 = conditions: Homo sapiens; MDA-MB-468, Breast Cancer; single dose 10 µM, 48 h; read-out: Percentage of cellular growth inhibition
Procedure: as §1

NCI-H322M = conditions: Homo sapiens, Non-Small Cell Lung Cancer, single dose 10 µM, 48 h, read-out: Percentage of cellular growth inhibition
Procedure: as §1

NCI-H460 = conditions: Homo sapiens; NCI-H460, Non-Small Cell Lung Cancer; single dose 10 µM, 48 h; read-out: Percentage of cellular growth inhibition
Procedure: as §1

NCI/ADR-RES = conditions: Homo sapiens, Ovarian Cancer, single dose 10 µM, 48 h, read-out: Percentage of cellular growth inhibition
Procedure: as §1

OVCAR-4 = conditions: Homo sapiens; OVCAR-4, Ovarian Cancer; single dose 10 µM, 48 h; read-out: Percentage of cellular growth inhibition
Procedure: as §1

OVCAR-8 = conditions: Homo sapiens; OVCAR-8, Ovarian Cancer; single dose 10 µM, 48 h; read-out: Percentage of cellular growth inhibition
Procedure: as §1

SF-539 = conditions: Homo sapiens; SF-539, CNS Cancer; single dose 10 µM, 48 h; read-out: Percentage of cellular growth inhibition
Procedure: as §1

SK-MEL-28 = conditions: Homo sapiens; SK-MEL-28, Melanoma; single dose 10 µM, 48 h; read-out: Percentage of cellular growth inhibition
Procedure: as §1

SN12C = conditions: Homo sapiens, Renal Cancer, single dose 10 µM, 48 h, read-out: Percentage of cellular growth inhibition
Procedure: as §1

SNB-19 = conditions: Homo sapiens; SNB-19, CNS Cancer; single dose 10 µM, 48 h; read-out: Percentage of cellular growth inhibition
Procedure: as §1

TK-10 = conditions: Homo sapiens; TK-10, Renal Cancer; single dose 10 µM, 48 h; read-out: Percentage of cellular growth inhibition
Procedure: as §1

UACC-62 = conditions: Homo sapiens; UACC-62, Melanoma; single dose 10 µM, 48 h; read-out: Percentage of cellular growth inhibition
Procedure: as §1

SMILES	inhibition at 10 µM (ACHN) [%]	inhibition at 10 µM (BT-549) [%]	inhibition at 10 µM (CCRF-CEM) [%]	inhibition at 10 µM (COLO 205) [%]	inhibition at 10 µM (HCT-15) [%]	inhibition at 10 µM (HL-60(TB)) [%]	inhibition at 10 µM (HT29) [%]	inhibition at 10 µM (IGROV1) [%]	inhibition at 10 µM (K-562) [%]	inhibition at 10 µM (MDA-MB-468) [%]	inhibition at 10 µM (NCI-H322M) [%]	inhibition at 10 µM (NCI-H460) [%]	inhibition at 10 µM (NCI/ADR-RES) [%]	inhibition at 10 µM (OVCAR-4) [%]	inhibition at 10 µM (OVCAR-8) [%]	inhibition at 10 µM (SF-539) [%]	inhibition at 10 µM (SK-MEL-28) [%]	inhibition at 10 µM (SN12C) [%]	inhibition at 10 µM (SNB-19) [%]	inhibition at 10 µM (TK-10) [%]	also measured
CCOc1ccc(/N=N/c2sc(Nc3cccc(Nc4nc(C)c(/N=N/c5ccc(OCC)cc5)s4)c3)nc2C)cc1 [5b, N^1,N^3-bis(5-((4-ethoxyphenyl)diazinyl)-4-methylthiazol-2-yl)benzene-1,3-diamine]	1.1	-3.7	-13.9	-5.1	8.4	8.9	0.2	9.7	-0.4	4.3	11.4	-6.8	1.5	0.1	-4	0.1	2.5	4.7	11.5	-0.2	inhibition at 10 µM (UACC-62): 20.5%
CC(=O)c1sc(Nc2cccc(Nc3nc(C)c(C(C)=O)s3)c2)nc1C [3b, 1,1’-(2,2’-(1,3-Phenylenebis(azanediyl))bis(4-methylthiazole-5,2-diyl))diethanone]	63.5	53.8	38.8	22.3	55.1	65.8	30	73.6	59.1	45	38.3	54.4	44.4	48.5	56.6	27.8	28.5	45	9.1	46.4	inhibition at 10 µM (UACC-62): 51.2%
NC(=S)Nc1cccc(NC(N)=S)c1 [compound 2, 1,1′-(1,3-phenylene)bis(thiourea)]	3.7	-14.6	3.6	-36.7	4.9	0.9	-13.3	2.5	90.7	13.5	11.7	-9.7	2.4	5.4	6	-0.5	-3.8	18.1	11.7	-7.3	inhibition at 10 µM (UACC-62): 29.5%
c1ccc(/N=c2\scc(-c3ccccc3)n2-c2cccc(-n3c(-c4ccccc4)cs/c3=N\c3ccccc3)c2)cc1 [8a, N,N’-(3,3’-(1,3-phenylene)bis(4-phenylthiazole-3(3H)-yl-2(3H)-ylidene))dianiline]	3	-31.8	-0.9	-21.3	-4.7	-4.4	-3.1	-6.1	7.8	9	1.8	-6.3	-5	5.3	-1.5	-7.1	-3.6	3.9	-5.9	-38.8	inhibition at 10 µM (UACC-62): 20.3%
